Data: ChEMBL document CHEMBL1125475, “Preferred antagonist binding state of the NMDA receptor: synthesis, pharmacology, and computer modeling of (phosphonomethyl)phenylalanine derivatives” (1992)

Tests used:
Type in all cases: functional
Mus musculus [1] = organism: Mus musculus; test: Antagonistic activity of 100 uM of compound against electrophysiological responses induced by NMDA (10 uM) in culture mouse cortical neurons
Mus musculus [2] = organism: Mus musculus; test: Tested for antagonistic activity against electrophysiological responses induced by NMDA (10 uM) in culture mouse cortical neurons at 10 uM
Mus musculus [3] = organism: Mus musculus; test: Tested for antagonistic activity against electrophysiological responses induced by NMDA (10 uM) in culture mouse cortical neurons at 100 uM
Mus musculus [4] = organism: Mus musculus; test: Antagonistic activity of 10 uM of compound against electrophysiological responses induced by NMDA (10 uM) in culture mouse cortical neurons

| SMILES | Inhibition (Mus musculus [1]) | also measured |
| --- | --- | --- |
| NC(Cc1ccc(CP(=O)(O)O)cc1)C(=O)O (centres undefined) | 0% |  |
| NC(CCCP(=O)(O)O)C(=O)O (centres undefined) |  | Inhibition (Mus musculus [2]): 68%; Inhibition (Mus musculus [3]): 100% |
| NC(Cc1ccccc1CP(=O)(O)O)C(=O)O (centres undefined) | 87% | Inhibition (Mus musculus [4]): 40% |
| NC(Cc1cccc(CC(=O)NO)c1)C(=O)O (centres undefined) |  | Inhibition (Mus musculus [3]): 12% |
| NC(CC1CCCCC1CS(=O)(=O)[O-])C(=O)O.[Na+] (centres undefined) | 50% |  |
| NC(Cc1cccc(CP(=O)(O)O)c1)C(=O)O (centres undefined) | 100% | Inhibition (Mus musculus [4]): 80% |
| NC(CC1CCCC(CS(=O)(=O)[O-])C1)C(=O)O.[Na+] (centres undefined) | 50% |  |
| NC(CC1CCCC(CP(=O)(O)O)C1)C(=O)O (centres undefined) | 90% | Inhibition (Mus musculus [4]): 34% |
| NC(CC1CCC(CP(=O)(O)O)CC1)C(=O)O (centres undefined) | 18% |  |
| NC(CC1CCC(CS(=O)(=O)[O-])CC1)C(=O)O.[Na+] (centres undefined) | 20% |  |
| NC(Cc1ccc(CS(=O)(=O)[O-])cc1)C(=O)O.[Na+] (centres undefined) | 0% |  |
| NC(CC1CCCCC1CP(=O)(O)O)C(=O)O (centres undefined) | 75% |  |
| NC(Cc1ccccc1CS(=O)(=O)[O-])C(=O)O.[Na+] (centres undefined) | 22% |  |
| NC(Cc1cccc(CS(=O)(=O)[O-])c1)C(=O)O.[Na+] (centres undefined) | 0% |  |
| NC(Cc1cccc(CC(=O)O)c1)C(=O)O (centres undefined) | 31% |  |
